The structures appear in SMILES notation. “Also recorded” adds a separate entry of the source.

Assay [1] deals with T1, BRD4 (Homo sapiens, UniProt O60885). Briefly: CURE-PRO-mediated BRD4 degradation in MCF7 cells, Western blot. Also noted: endogenous in cells. It counts as cell-based. The following applies: 1:1 with VHL ligand 8305, MCF7, 24 h, 100 nM-10 μM. As to the method: (§1) Namalwa, Ramosm HeLa, MCF7, or HT29 HCT116 cells (2.5-3×10^6) were treated for 24 hours with the indicated compounds solubilized in DMSO. The cells were washed in ice-cold PBS and were then lysed in RIPA lysis buffer (150 mM NaCl, 5 mM EDTA, 1% NP-40, 0.5% sodium deoxycholate, 0.1% SDS, 50 mM Tris, pH 8.0.) with Roche protease inhibitor complete cocktail and phosphatase inhibitors (10 mM sodium fluoride, 10 mM sodium pyrophosphate, 1 mM sodium orthovanadate and 20 mM β-glycerophosphate). The total protein concentrations were determined by Bradford Protein Assay (Pierce) and 10-20 μg of protein was loaded onto 4-15% Tris-Glycine gradient gels (Biorad). After standard gel electrophoresis, the separated proteins were transferred to PVDF membrane by wet transfer. The immunoblots were then blocked for 1 hour in 5% skim milk in TBST or 5% BSA in TBST, according to manufacturer's instructions, before an overnight incubation at 4° C. with indicated antibodies and membranes. Membranes were then incubated with the appropriate horseradish peroxidase-conjugated secondary antibodies (1:5,000 dilution) for 1 h at room temperature and the bands were visualized using the Clarity Max Western ECL Substrate (Biorad) and the ChemiDoc Imaging System (Biorad). Signal was detected with ECL Western Blotting Substrate (Pierce) and X-ray film processed with a Konica SRX-101 X-ray film processor or captured by Bio-Rad's Chemidoc Imaging system.
MCF7 cells (3×10^6) were treated for 24 h with the compounds solubilized in DMSO. Compounds were added at 100 nM-10 μM. Standardized protein samples were electrophoresed and imaged as described in the Immunoblotting section above. FIG. 69 depicts the CURE-PRO-mediated BRD4 degradation for the BRD-E9 monomer and VHL ligands 8305 combined in a 1:1 ratio, and FIG. 70 depicts the CURE-PRO-mediated BRD4 degradation for the BRD-E20 monomer and 8305.
MCF7 cells (3×10^6) were treated for 24 h with the compounds solubilized in DMSO. Compounds were added at 1 μM-10 μM. Standardized protein samples were electrophoresed and imaged as described in the Immunoblotting section above. FIG. 71 depicts the CURE-PRO-mediated BRD4 degradation for the BRD-E50 monomer and VHL ligands 8305 and 8304 combined in a 1:1 ratio.

In assay [2] the target is T1, BRD4. The assay can be described thus: CURE-PRO-mediated BRD4 degradation in MCF7 cells, WES (ProteinSimple). It counts as cell-based. Also noted: endogenous in cells. The procedure: WES Simple analysis was performed on WES system (ProteinSimple-Biotechne) according to the manufacturer's instructions. Total protein concentrations of cell lysates were determined by the Pierce BCA kit (Thermo Fisher). 3 μL of 0.3 μg/μL of the protein lysate was loaded onto a 12- to 230-kDa WES assay plate (ProteinSimple) where 300 nL sample was withdrawn through a capillary, subjected to electrophoretic separation of proteins by size, and followed by the simultaneous, HRP-based detection of proteins using the Anti-Rabbit Detection Module (Proteinsimple: #DM-001). The electropherograms were checked then the automatic peak detection was manually corrected if it was required.
MCF7 cells (3×10^6) were treated for 4-24 hours continually (FIG. 72), or treated for 4 h, washed and incubated for a further 4-24 h with the compounds solubilized in DMSO. Compounds were added at 10 μM each. Cells were washed, lysed, and clarified by centrifugation. The total protein concentration was quantified by the BCA method (ThermoFisher Sciences). Standardized protein samples were electrophoresed and imaged as described in the WES Proteinsimple section above. FIG. 69 depicts the CURE-PRO-mediated BRD4 degradation for the BRD-E50 monomer, and VHL ligand, 8305.
MCF7 cells (3×10^6) were treated for 24 hours with the compounds solubilized in DMSO. CURE-PRO monomers were added at 10 μM each and the proteasomal inhibitors at 1 μM. Standardized protein samples were electrophoresed and imaged as described in the WES Proteinsimple section above. FIGS. 73 and 75 depicts the dependence of the proteasome for CURE-PRO-mediated BRD4 degradation.
MCF7 cells (3×10^6) were treated for 24 hours with the compounds solubilized in DMSO. CURE-PRO monomers were added at 10 μM. FIG. 74 depicts the CURE-PRO-mediated BRD4 degradation for the BRD-E50 monomer, and VHL ligand, 8305 combined in a 1:1 ratio after 24 h.

Assay [3] has as its target T1, BRD4. Briefly: BRD protein family degradation in HCT116 cells, Western blot: BRD4. Also noted: endogenous in cells. It counts as cell-based. The procedure:
as §1
HCT116 cells (3×10^6) were treated for 24 hours with the compounds solubilized in DMSO. Compounds were added at 100 nM-10 μM each. Standardized protein samples were electrophoresed and imaged as described in the Immunoblotting section above. FIGS. 64 and 65 depict the concentration-dependence of CURE-PRO-mediated BRD2 and BRD3 degradation using MDM2 ligands.

In assay [4] the test system is SLC19A1. Briefly: RT-PCR of c-MYC downstream target gene SLC19A1 in HeLa cells. The following applies: 10 μM each, 24 h. It counts as cell-based, Human. As to the method:
The suppression of the expression of the downstream c-MYC target, SLC19A1, was measured by RT-PCR using Power SYBR® Green Cells-to-Ct™ Kit (Life Technologies). Adherent cells were plated on 96 well plates at 5,000 cells per well were treated for 24 h with monomer compounds and compounds capable of reversible interactions (1 nM-100 μM). Cells were subsequently washed in ice-cold PBS processed according to the manufacturer's instructions. Quantitative real-time PCR was performed using a ViiA™ 7 Real-time PCR System (Applied Biosystems, Foster City, Calif., USA). GAPDH and ACTB served as internal controls.
HeLa cells (1×10^4) were treated for 24 hours in 96 well plates with the compounds solubilized in DMSO. Compounds were added at 10 μM each and RNA expression measured by the Cells-to Ct method described above (Thermofisher).

Assay [5] deals with T2, BRD3 (Homo sapiens, UniProt Q15059).
T2 construct: endogenous in cells; host or cells: HCT116
Briefly: BRD protein family degradation in HCT116 cells, Western blot: BRD3. It counts as cell-based. To be noted: 1:1 with MDM2 ligands 8310 and 8312 (each), HCT116, 24 h, 100 nM-10 μM. The procedure:
as §1, with “Membranes were then incubated with the appropriate horseradish peroxidase-conjugated secondary antibodies (1:5,000 dilution) for 1 h at room temperature and the bands were visualized using the Clarity Max Western ECL Substrate (Biorad) and the ChemiDoc Imaging System (Biorad).” left out, “system. […]” for “system.”

Assay [6] deals with T3, BRD2 (Homo sapiens, UniProt P25440).
T3 construct: endogenous in cells; host or cells: HCT116
The assay can be described thus: BRD protein family degradation in HCT116 cells, Western blot: BRD2. It counts as cell-based. To be noted: 1:1 with MDM2 ligands 8310 and 8312 (each), HCT116, 24 h, 100 nM-10 μM. As to the method:
as §1, with “Membranes were then incubated with the appropriate horseradish peroxidase-conjugated secondary antibodies (1:5,000 dilution) for 1 h at room temperature and the bands were visualized using the Clarity Max Western ECL Substrate (Biorad) and the ChemiDoc Imaging System (Biorad).” left out, “system. […]” for “system.”

T3 sequence (P25440 whole entry): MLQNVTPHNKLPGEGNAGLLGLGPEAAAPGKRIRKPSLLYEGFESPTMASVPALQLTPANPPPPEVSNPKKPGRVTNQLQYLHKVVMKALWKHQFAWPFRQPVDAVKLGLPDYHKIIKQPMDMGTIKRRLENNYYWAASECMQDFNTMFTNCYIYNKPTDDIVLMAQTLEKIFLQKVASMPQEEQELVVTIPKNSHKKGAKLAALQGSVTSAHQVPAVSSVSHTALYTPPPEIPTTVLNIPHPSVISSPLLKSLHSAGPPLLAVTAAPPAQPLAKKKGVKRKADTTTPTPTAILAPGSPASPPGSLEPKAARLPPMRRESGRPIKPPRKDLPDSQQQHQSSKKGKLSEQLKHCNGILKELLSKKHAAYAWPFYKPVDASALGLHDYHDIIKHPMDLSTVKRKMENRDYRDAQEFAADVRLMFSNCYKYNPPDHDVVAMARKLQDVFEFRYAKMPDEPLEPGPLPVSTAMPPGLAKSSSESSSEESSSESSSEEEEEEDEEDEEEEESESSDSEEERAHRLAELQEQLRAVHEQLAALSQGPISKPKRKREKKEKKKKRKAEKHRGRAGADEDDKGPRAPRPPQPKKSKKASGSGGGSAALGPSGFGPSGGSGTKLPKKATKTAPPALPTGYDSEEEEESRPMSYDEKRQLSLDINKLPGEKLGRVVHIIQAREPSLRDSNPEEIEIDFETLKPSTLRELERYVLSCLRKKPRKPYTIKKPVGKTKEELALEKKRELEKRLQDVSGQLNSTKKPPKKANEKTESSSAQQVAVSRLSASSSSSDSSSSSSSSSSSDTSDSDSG
T2 sequence (Q15059 whole entry): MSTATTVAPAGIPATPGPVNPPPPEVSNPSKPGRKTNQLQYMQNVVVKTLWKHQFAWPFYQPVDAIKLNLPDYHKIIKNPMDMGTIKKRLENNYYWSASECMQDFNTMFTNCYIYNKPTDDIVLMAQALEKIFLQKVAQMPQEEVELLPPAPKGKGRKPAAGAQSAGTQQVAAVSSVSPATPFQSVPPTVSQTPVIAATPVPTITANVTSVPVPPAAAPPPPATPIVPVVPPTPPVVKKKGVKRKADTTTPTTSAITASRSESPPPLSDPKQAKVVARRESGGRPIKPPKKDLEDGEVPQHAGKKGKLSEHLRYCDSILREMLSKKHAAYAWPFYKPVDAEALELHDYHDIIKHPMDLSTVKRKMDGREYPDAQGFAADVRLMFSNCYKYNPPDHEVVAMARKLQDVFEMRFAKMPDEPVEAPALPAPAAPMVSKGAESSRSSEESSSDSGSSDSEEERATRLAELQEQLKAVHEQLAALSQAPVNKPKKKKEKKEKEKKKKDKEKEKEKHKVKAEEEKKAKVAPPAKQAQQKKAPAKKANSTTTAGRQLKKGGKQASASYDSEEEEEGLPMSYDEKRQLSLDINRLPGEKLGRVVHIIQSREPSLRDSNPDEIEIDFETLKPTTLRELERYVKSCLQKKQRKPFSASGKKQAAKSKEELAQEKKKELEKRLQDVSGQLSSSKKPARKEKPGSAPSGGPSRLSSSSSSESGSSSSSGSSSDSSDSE

As to `CCNC(=O)C[C@@H]1N=C(c2ccc(Cl)cc2)c2cc(OCCCCC(=O)Nc3cccc(B(O)O)c3)ccc2-n2c(C)nnc21` [BRD-E20, (3-(5-(((4S)-6-(4-chlorophenyl)-4-(2-(ethylamino)-2-oxoethyl)-1-methyl-4H-benzo[f][1,2,4]triazolo[4,3-a][1,4]diazepin-8-yl)oxy)pentanamido)phenyl)boronic acid], the BRD4 degradation entry is “there is degradation of BRD4” in assay [1]; “caused BRD4 degradation; also recorded: marked BRD4 degradation” in assay [2] (1:1 with VHL ligand 8305, MCF7, 10 μM each, 4-24 h); “failed to induce BRD4 degradation” in assay [2] (co-incubated with VHL ligand 8304, MCF7, 10 μM each). In addition, the “BRD4 degradation with proteasome inhibitors” value in assay [2] (1:1 with 8305 at 10 μM, pre-incubation with MG-132 and Carfilzomib 1 μM, MCF7) is “inhibited by the pre-incubation with MG-132 and Carfilzomib; also recorded: inhibited with the proteasome inhibitors, MG-132 and Carfilzomib”.

`CCNC(=O)C[C@@H]1N=C(c2ccc(Cl)cc2)c2cc(OCCOCCNC(=O)c3cccc(O)c3O)ccc2-n2c(C)nnc21` [BRD-N39, N-(2-(2-(((4S)-6-(4-chlorophenyl)-4-(2-(ethylamino)-2-oxoethyl)-1-methyl-4H-benzo[f][1,2,4]triazolo[4,3-a][1,4]diazepin-8-yl)oxy)ethoxy)ethyl)-2,3-dihydroxybenzamide]: in assay [3] (1:1 with MDM2 ligands 8310 and 8312 (each), HCT116, 24 h, 100 nM-10 μM), the BRD4 degradation entry was “caused BRD4 degradation; also recorded: Degradation is evident”. In assay [3] (with MDM2 ligands 8310 and 8312, HCT116, Western blot), the “selectivity of degradation among BRD2, BRD3 and BRD4” value was “some selectivity for BRD4 over BRD2 and BRD3 is noted”. The “suppression of SLC19A1 expression” value in assay [4] (combined with MDM2 ligand 8310, HeLa) is “suppression to levels comparable to that of JQ1 treatment”; in assay [4] (combined with MDM2 ligand 8312, HeLa) it was “Complete suppression; also recorded: completely suppressed”. Further, the BRD3 degradation entry in assay [5] was “degradation of BRD3; also recorded: Degradation is evident”. Further, the BRD2 degradation entry in assay [6] is listed as “BRD2 to a lesser extent; also recorded: Degradation is evident”.

The values above are taken from patent US20230285570A1, “THERAPEUTICALLY USEFUL CURE-PRO MOLECULES FOR E3 LIGASE MEDIATED DEGRADATION OF PROTEINS, AND METHODS OF MAKING AND USING THEM” (CORNELL UNIVERSITY, priority 2020, published 2023).
